# Laboratory results as given in ChEMBL document CHEMBL1275424, “In vitro activity of anidulafungin against Candida albicans biofilms” (2008).
# Numbered stars: 1 amine (or outer) side, 2 acyl side, 3 side chain; on linkers, the order of the positions; unused ones are H or OH. Bridge positions count the residues as written; N and C are the ends. Square brackets hold non-standard residues; d marks the D form. Peptide text beside a SMILES is read from it. * marks the point of attachment. pTerphenylCO(4''-OnC5H11) = CCCCCOc1ccc(-c2ccc(-c3ccc(C(=O)*)cc3)cc2)cc1; Orn(4R-OH,5R-OH) = O=C([C@H](C[C@@H](O)[C@@H](O)N[*:3])N[*:1])[*:2]; hTyr(3S-OH,4S-OH) = N[C@H](C(=O)O)[C@H](O)[C@@H](O)c1ccc(O)cc1; Pro(3S-OH,4S-Me) = C[C@H]1CN[C@H](C(=O)O)[C@H]1O; Hyp = O=C(O)[C@@H]1C[C@@H](O)CN1
# Columns and labels:
# Format in all cases: functional
# Candida albicans [1] = experiment: Antimicrobial activity against Candida albicans grown as planktonic cell after 24 hrs by broth microdilution method
# Candida albicans [2] = experiment: Antimicrobial activity against Candida albicans grown as planktonic cell by broth microdilution method
# Candida albicans [3] = experiment: Antimicrobial activity against Candida albicans GDH2346 grown as sessile cell after 48 hrs by broth microdilution method; conditions: GDH2346, 48 h
# Candida albicans [4] = experiment: Antimicrobial activity against Candida albicans grown as planktonic cell after 48 hrs by broth microdilution method
# Candida albicans [5] = experiment: Antimicrobial activity against Candida albicans grown as sessile cell after 48 hrs by broth microdilution method
Structure (SMILES),MIC (Candida albicans [1]) [µg/mL],MIC (Candida albicans [2]) [µg/mL],MIC50 (Candida albicans [2]) [µg/mL],MIC90 (Candida albicans [2]) [µg/mL],MIC (Candida albicans [3]) [µg/mL],MIC (Candida albicans [4]) [µg/mL],MIC (Candida albicans [5]) [µg/mL]
"CCCCCOc1ccc(-c2ccc(-c3ccc(C(=O)N[C@H]4C[C@@H](O)[C@@H](O)NC(=O)[C@@H]5[C@@H](O)[C@@H](C)CN5C(=O)[C@H]([C@@H](C)O)NC(=O)[C@H]([C@H](O)[C@@H](O)c5ccc(O)cc5)NC(=O)[C@@H]5C[C@@H](O)CN5C(=O)[C@H]([C@@H](C)O)NC4=O)cc3)cc2)cc1 [ANIDULAFUNGIN] ({pTerphenylCO(4''-OnC5H11)}-[Orn(4R-OH,5R-OH)]T[Hyp][hTyr(3S-OH,4S-OH)]T[Pro(3S-OH,4S-Me)]; lactam 1-C)",0.125,≤ 0.03,≤ 0.03,0.125,≤ 0.03,≤ 0.5,> 0.03
C[C@@H](c1ncncc1F)[C@](O)(Cn1cncn1)c1ccc(F)cc1F [VORICONAZOLE],–,–,–,> 0.06,–,–,–
C[C@@H]1[C@H](O)[C@@H](C)/C=C/C=C/C=C/C=C/C=C/C=C/C=C/[C@H](O[C@@H]2O[C@H](C)[C@@H](O)[C@H](N)[C@@H]2O)C[C@@H]2O[C@](O)(C[C@@H](O)C[C@@H](O)[C@H](O)CC[C@@H](O)C[C@@H](O)CC(=O)O[C@H]1C)C[C@H](O)[C@H]2C(=O)O [AMPHOTERICIN B],–,–,–,0.25,–,–,–
CC[C@H](C)C[C@H](C)CCCCCCCCC(=O)N[C@H]1C[C@@H](O)[C@@H](NCCN)NC(=O)[C@@H]2[C@@H](O)CCN2C(=O)[C@H]([C@H](O)CCN)NC(=O)[C@H]([C@H](O)[C@@H](O)c2ccc(O)cc2)NC(=O)[C@@H]2C[C@@H](O)CN2C(=O)[C@H]([C@@H](C)O)NC1=O [CASPOFUNGIN],–,–,–,0.5,–,–,–
